Source: patent publication US7507859B2, “Functional synthetic molecules and macromolecules for gene delivery” (Fifth Base LLC, priority 2003, dated 2009)

How the values were obtained:
Gel formation in DMSO = assay type: physicochemical; details: sonication (30 sec) or heating to 60 C for 5 minutes and cooling to room temperature
Procedure: The gels can be produced by either 1) sonication (30 sec) or by heating the suspensions to 60 C for 5 minutes and cooling to room temperature.

DNA [1] = experiment: Ethidium bromide-DNA fluorescence quenching exclusion assay; assay type: binding; details: 2 mM HEPES, 150 mM NaCl, 10 μm EDTA, pH 7.4; 60 minutes incubation; triplicate
Procedure: Exclusion assay (adapted from; A. J. Geall, I. S. Blagbrough, Journal of Pharmaceutical and Biomedical Analysis 22 (2000) 849-859)
(§1) Five μg (5 μl of 1 mg/mL solution) of DNA and varying amount of amphiphiles (dependent on the Amphiphile/DNA ratio required) were diluted to 1000 μL with buffer (2 mM HEPES, 150 mM NaCl, 10 μm EDTA, pH 7.4). The solutions were mixed on a bench top vortex and incubated for 60 minutes at ambient temperature. Each solution was then diluted to 3 mL with buffer (2 mM HEPES, 150 mM NaCl, 10 μm EDTA, pH 7.4). Immediately prior to the analysis, 3 μL of Eth Br solution (0.6 mg/ml, 1.3 mM, effectively present in excess) was added, the sample was mixed on a bench top vortex, and the fluorescence measured. The fluorescence was expressed as the percentage of the maximum fluorescence signal when EthBr was bound to the DNA in the absence of amphiphile. Assays were run in triplicate. […] Compound 30a bound DNA and displaced EthBr.

DNA [2] = experiment: Exclusion assay after addition of an esterase (DNA release); assay type: biochemical; details: esterase added to the amphiphile-DNA solution; EthBr intercalates again
Procedure: as §1

[3] = tested on: chinese hamster ovary (CHO) cells; experiment: B-galactosidase transfection assay; assay type: cell-based; details: varying concentrations of lipid and DNA, triplicate, 96 well plates, chemiluminescent reporter
Procedure: Transfection assays were performed using the well established B-galactosidase transfection assay. In these experiments the B-galactosidase gene is transfected into cells. Next, the expressed enzyme then cleaves a chemiluminescent reporter that is detected. The assays are conducted with chinese hamster ovary (CHO) cells following a standard lipid transfection procedure. The procedure is performed on varying concentrations of lipid and DNA in triplicate in 96 well plates.

Row | Compound | Gel formation in DMSO (Gel formation in DMSO) | DNA binding and displacement of EtBr (DNA [1]) | DNA release from the amphiphile after esterase cleavage of the ester linkages (DNA [2]) | Transfection of the B-galactosidase gene [3]
1 | CCCCCCCCCCCCCCCC(=O)O[C@@H]1[C@H](OC(=O)CCCCCCCCCCCCCCC)[C@@H](CO)O[C@H]1n1ccc(=O)[nH]c1=O [2′,3′dipalmitoyl uridine, 2′,3′palmitoyl uridine] | form gels in DMSO | – | – | –
2 | C[N+](C)(C)CC(COC(=O)CCCCCCCCCCC(=O)OCc1ccccc1[N+](=O)[O-])OC(=O)CCCCCCCCCCC(=O)OCc1ccccc1[N+](=O)[O-].[I-] (stereo not shown) [Compound 30b, {2,3-Bis-[11-(2-nitro-benzyloxycarbonyl)-undecanoyloxy]-propyl}-trimethyl-ammonium; iodide] | – | bound DNA and displaced EtBr | – | –
3 | CC(C)(C)OC(=O)CCCCCCCCCCC(=O)OCC(C[N+](C)(C)C)OC(=O)CCCCCCCCCCC(=O)OC(C)(C)C.[I-] (stereo not shown) [Compound 34, [2,3-Bis-(11-tert-butoxycarbonyl-undecanoyloxy)-propyl]-trimethyl-ammonium; iodide] | – | bound DNA and displaced EtBr | releasing the DNA from the amphiphile | –
4 | CC(=O)OCC(C[N+](C)(C)C)OC(C)=O.[I-] (stereo not shown) [Compound 36, (2,3-Diacetoxy-propyl)-trimethyl-ammonium; iodide] | – | did not bind DNA and displace EthBr | – | minimal transfection activity
5 | C[N+](C)(C)CC(COC(=O)CCCCCCCCCCCOCc1ccccc1)OC(=O)CCCCCCCCCCCOCc1ccccc1.[I-] (stereo not shown) [Compound 40, [2,3-Bis-(12-benzyloxy-dodecanoyloxy)-propyl]-trimethyl-ammonium; iodide] | – | – | – | transfected the B-galactosidase gene

More lines, main results first:

Row | Gel formation in DMSO (Gel formation in DMSO) | DNA binding and displacement of EtBr (DNA [1]) | Compound | DNA release from the amphiphile after esterase cleavage of the ester linkages (DNA [2]) | Transfection of the B-galactosidase gene [3]
6 | – | bound DNA and displaced EtBr | C[N+](C)(C)CC(COC(=O)NCCCCCCCCCCCC(=O)OCC1CC(=O)Oc2cc(O)c(Br)cc21)OC(=O)NCCCCCCCCCCCC(=O)OCC1CC(=O)Oc2cc(O)c(Br)cc21.[I-] (stereo not shown) [Compound 26, {2,3-Bis-[11-(6-bromo-7-hydroxy-2-oxo-chroman-4-ylmethoxycarbonyl)-undecylcarbamoyloxy]-propyl}-trimethyl-ammonium iodide] | – | –
7 | – | bound DNA and displaced EtBr | C[N+](C)(C)CC(COC(=O)CCCCCCCCCCC(=O)OCc1ccccc1)OC(=O)CCCCCCCCCCC(=O)OCc1ccccc1.[I-] (stereo not shown) [Compound 30a, [2,3-Bis-(11-benzyloxycarbonyl-undecanoyloxy)-propyl]-trimethyl-ammonium; iodide] | releasing the DNA from the amphiphile | transfected the B-galactosidase gene
8 | – | did not bind DNA and displace EthBr | C[N+](C)(C)CC(COC(=O)CCCCCCCCCCC(=O)O)OC(=O)CCCCCCCCCCC(=O)O.[I-] (stereo not shown) [Compound 35, [2,3-Bis-(11-carboxy-undecanoyloxy)-propyl]-trimethyl-ammonium; iodide] | – | minimal transfection activity
9 | – | bound DNA and displaced EtBr | CCCCCCCCCCCCCC(=O)OCC(COC(=O)CCCCCCCCCCCCC)OC(=O)CCC(=O)OCC(COC(=O)CCC(=O)OC(COC(=O)CCCCCCCCCCCCC)COC(=O)CCCCCCCCCCCCC)OC(=O)CCC(=O)OC(COC(=O)CCC(=O)OCC[N+](C)(C)C)COC(=O)CCC(=O)OCC[N+](C)(C)C [Compound 85] | – | –
10 | – | bound DNA and displaced EtBr | Trimethylamino-[G0]-PGLSA dendrimer iodide [Compound 44] | – | –
11 | – | bound DNA and displaced EtBr | Trimethylamino-[G1]-PGLSA dendrimer iodide [Compound 47] | – | –
